Assay results: ChEMBL document CHEMBL1150196, “Isolation and structure of cytostatic steroidal saponins from the African medicinal plant Balanites aegyptica” (1991)
Values after ≈ are worked out from the molar mass of the structure shown.

These molecules were tested on P388 (assay: Cytotoxicity against mouse P388 cells). Settings: read-out: ED50 (the source's name).
Assay type: functional

Point of comparison: `C[C@H]1CC[C@@]2(OC1)O[C@H]1C[C@H]3[C@@H]4CC=C5C[C@@H](O[C@@H]6O[C@H](CO)[C@@H](O[C@@H]7O[C@H](CO)[C@@H](O)[C@H](O[C@@H]8OC[C@@H](O)[C@H](O)[C@H]8O)[C@H]7O)[C@H](O)[C@H]6O[C@@H]6O[C@@H](C)[C@H](O)[C@@H](O)[C@H]6O)CC[C@]5(C)[C@H]4CC[C@]3(C)[C@H]1[C@@H]2C` [BALANITIN 7], EC50 0.22 µg/mL (≈ 0.216 µM). Against it:
- C[C@H]1CC[C@@]2(OC1)O[C@H]1C[C@H]3[C@@H]4CC=C5C[C@@H](O[C@@H]6O[C@H](CO)[C@@H](O[C@@H]7O[C@H](CO)[C@@H](O)[C@H](O)[C@H]7O)[C@H](O)[C@H]6O[C@@H]6O[C@@H](C)[C@H](O)[C@@H](O)[C@H]6O)CC[C@]5(C)[C@H]4CC[C@]3(C)[C@H]1[C@@H]2C [BALANITIN 6] — within 1.5-fold, 0.21 µg/mL (≈ 0.237 µM)
- C[C@H]1CC[C@@]2(OC1)O[C@H]1C[C@H]3[C@@H]4CC=C5C[C@@H](O[C@@H]6O[C@H](CO)[C@@H](O[C@@H]7O[C@H](CO)[C@@H](O)[C@H](O[C@@H]8O[C@H](CO)[C@@H](O)[C@H](O)[C@H]8O)[C@H]7O)[C@H](O)[C@H]6O[C@@H]6O[C@@H](C)[C@H](O)[C@@H](O)[C@H]6O)CC[C@]5(C)[C@H]4CC[C@]3(C)[C@H]1[C@@H]2C [BALANITIN 4] — 1.9-fold higher, 0.41 µg/mL (≈ 0.392 µM)
- O=c1[nH]cc(F)c(=O)[nH]1 [FLUOROURACIL] — 2.8-fold lower, 0.08 µg/mL (≈ 0.615 µM)
- C[C@H]1CC[C@@]2(OC1)O[C@H]1C[C@H]3[C@@H]4CC=C5C[C@@H](O[C@@H]6O[C@H](CO)[C@@H](O[C@@H]7O[C@H](CO)[C@@H](O)[C@H](O[C@@H]8O[C@@H](C)[C@H](O)[C@@H](O)[C@H]8O)[C@H]7O)[C@H](O)[C@H]6O[C@@H]6O[C@@H](C)[C@H](O)[C@@H](O)[C@H]6O)CC[C@]5(C)[C@H]4CC[C@]3(C)[C@H]1[C@@H]2C [BALANITIN 5] — 11-fold higher, 2.4 µg/mL (≈ 2.33 µM)
